Active and inactive are the calls of the source. The calls are words filed in the database; no cut-off is given here.
Key:
[1] = system: Brassica rapa subsp. oleifera; assay: Growth-promoting activity in Brassica campestris assessed as whole body growth at 25 degC after 1 week by filter paper assay under 12 hrs/12 hrs light-dark cycle condition; assay type: functional, organism-based
[2] = system: Brassica rapa subsp. oleifera; assay: Growth-promoting activity in Brassica campestris assessed as root growth at 25 degC after 1 week by filter paper assay under 12 hrs/12 hrs light-dark cycle condition; assay type: functional, organism-based

With `CCCCCCCC/C=C\CCCCCCC/C=C/[C@@H](O)[C@H](CO[C@@H]1O[C@H](CO)[C@@H](O)[C@H](O)[C@H]1O)NC(=O)[C@H](O)CCCCCCCCCCCC` the Activity [1] was “Active”.
In the case of `CC(C)CC(=O)C[C@@](C)(O)[C@H]1CC[C@H]2[C@@H]3C[C@H](O[C@@H]4O[C@H](C)C(=O)[C@H](O[C@@H]5O[C@H](C)[C@@H](O[C@@H]6O[C@H](C)[C@H](O)[C@H](O)[C@H]6O[C@@H]6O[C@H](C)[C@H](O)[C@H](O)[C@H]6O)[C@H](O)[C@H]5O[C@@H]5O[C@H](C)[C@@H](O)[C@H](O)[C@H]5O)[C@H]4O)[C@H]4C[C@@H](OS(=O)(=O)O)CC[C@]4(C)C3=CC[C@@]21C`, the Activity [1] is reported as “inactive”.
For `CCCCCCCC/C=C\CCCCCCCC[C@@H](O)[C@@H](O)[C@H](CO)NC(=O)[C@H](O)CCCCCCCCCCCCCC`, the Activity [2] was “Active”.
With `CC(C)CC(=O)C[C@@](C)(O)[C@H]1CC[C@H]2[C@@H]3C[C@H](O[C@@H]4O[C@H](C)[C@@H](O)[C@H](O[C@@H]5OC[C@@H](O[C@@H]6O[C@H](CO)[C@H](O)[C@H](O)[C@H]6O[C@@H]6O[C@H](C)[C@@H](O)[C@H](O)[C@H]6O)[C@H](O)[C@H]5O[C@H]5O[C@@H](C)[C@H](O)[C@@H](O)[C@@H]5O)[C@H]4O)[C@H]4C[C@@H](OS(=O)(=O)O)CC[C@]4(C)C3=CC[C@@]21C` the Activity [1] was “inactive”.
In the case of `CCCCCCCC/C=C\CCCCCCC/C=C/[C@@H](O)[C@H](CO[C@@H]1O[C@H](CO)[C@@H](O)[C@H](O)[C@H]1O)NC(=O)[C@H](O)CCCCCCCCCCCCC`, the Activity [1] is reported as “Active”.
For `CCCCCCCC/C=C\CCCCCC/C=C/[C@@H](O)[C@H](CO[C@@H]1O[C@H](CO)[C@@H](O)[C@H](O)[C@H]1O)NC(=O)[C@H](O)CCCCCCCCCCCCCC`, the Activity [1] was “Active”.
